Data on two molecules can be found in patent US20090048339A1, “COMPOSITIONS OF CIS-9, TRANS-11 CONJUGATED LINOLEIC ACID AND VACCENIC ACID AND USES THEREOF” (FONTERRA CORPORATE RESEARCH AND DEVELOPMENT LIMITE, priority 2005, published 2009).

In one data set the test system is IL-5. Kind of data set: IL-5 in BAL fluid by ELISA after allergen challenge. Type of data set: in vivo, C57BL/6 mice. Particulars: vs AIN-93G control. The source says: The levels of IL-5 and eotaxin in the BAL fluid were quantitated by ELISA using a Quantikine mouse IL-5 ELISA kit and a mouse eotaxin Quantikine ELISA kit (R&D Systems, MN), respectively, according to the manufacturers' instructions. The detection limits were 3 pg/ml for eotaxin and 7 pg/ml for IL-5.
IL-5 and eotaxin produced by a variety of different cell types in the sensitized lung play key roles in asthma by controlling the development and release of eosinophils from the bone marrow, and their accumulation, activation and survival in the lung (Walsh et al., 2005; Shinagawa et al., 2003). Challenge with allergen led to marked increases in the levels of IL-5 and eotaxin (data not shown) in the BAL fluid of control mice fed the AIN93G diet (FIG. 3).

Data set [1] deals with allergen-induced accumulation of leukocytes into the lung. Kind of data set: OVA-induced asthma mouse model: bronchoalveolar lavage (BAL) total and differential cell counts. Format: in vivo, C57BL/6 mice. Particulars: for increase of total BAL cell counts vs control diet: single-supplement diets (0.14% cis-9, trans-11 CLA or 0.21% VA), BAL 6 days after intranasal OVA challenge, vs AIN93G control; for increase of accumulation of eosinophils in BAL vs control diet: single-supplement diets, BAL 6 days after OVA challenge, not significant; for effect on leukocyte infiltration into the airway lumen: summary statement. As for the experimental part:
(§1) Eight to nine week old male and female C57BL/6 mice (University of Auckland, New Zealand) were kept on an ovalbumin (OVA)-free normal mouse chow diet from weaning up until they were assigned to a particular diet (control or experimental diet). Each diet group (n=6) contained an equal number of male and female mice. Throughout the study period mice were kept in an air-conditioned room with controlled humidity, temperature, and a 12h light:dark cycle.
(§2) Healthy control mice were maintained on an unmodified AIN-93G diet. Soybean oil (which contains no CLA) was the dietary fat source in the AIN-93G diet. The final fat content of all treatment diets used in the Examples was maintained at the same level as the fat content of the control AIN-93G diet by reducing the soybean oil content of the treatment or control diets as required. Fresh diet was provided biweekly, and mice had free access to food and water throughout the study.
Bronchoalveolar lavage was performed immediately after euthanasia by flushing 1 ml of PBS containing 1% heat inactivated fetal calf serum (lavage buffer) thrice through the lung and airways of mice via the cannulated trachea. The recovered BAL was pooled for each animal, centrifuged at 1,500 rpm at 4° C., and the supernatant stored at −80° C. The cell pellets were resuspended in 1 ml of lavage buffer, and total cell numbers were counted using a hemocytometer. BAL cells were centrifuged onto poly-L-lysine-coated glass slides using a cytospin, and stained with Diff-Quik stain (Dade Behring Inc. USA). Differential cellular counts were made by counting ≧300 cells under light microscopy (Nikon E200 microscope), using standard morphological criteria.
Data are expressed as the mean±SEM, and statistical significance was determined by the Student's t test. A value of P<0.05 was taken as significant.

A further data set relates to OVA-induced asthma. The data set can be described thus: OVA-induced asthma mouse model: lung histopathology score and mucus index (alcian blue-PAS sections). Format: in vivo, C57BL/6 mice. Particulars: summary statement; for effect on lung pathology: fed individually. The method, then: as §1, §2
Data set [2] can be described thus: Blood triglyceride levels (Accutrend GCT meter). Particulars: diet with 0.21% VA; P<0.05; data not shown.
For data set [3] the following is noted: mice, two week feeding period; cited from earlier work.
The conditions of data set [4]: humans; cited from earlier work.

Take `CCCCCC/C=C/C=C\CCCCCCCC(=O)O` [cis-9, trans-11 CLA, cis-9, trans-11 conjugated linoleic acid]: the “reduction of IL-5 in BAL fluid vs control diet” value in the data set on IL-5 was determined as 21%. For the same molecule, the “increase in monocytes/macrophages in BAL vs control diet” value in data set [1] (0.14% cis-9, trans-11 CLA diet, P=0.05) came out at 35%. In data set [1], the “increase of total BAL cell counts vs control diet” value is listed as 43%, the “increase of accumulation of eosinophils in BAL vs control diet” value was 69% and the “effect on leukocyte infiltration into the airway lumen” value is reported as “increased”. In the data set on OVA-induced asthma, the “effect on lung pathology” value is “no significant effect” and the “inhibition of mucus hypersecretion (significance)” value is given as “significance was not achieved”.
For `CCCCCC/C=C/CCCCCCCCCC(=O)O` [VA, trans 11-octadecenoic acid], in data set [2], the “increase of blood triglyceride levels” value is given as 59%. In the data set with IL-5, the “reduction of IL-5 in BAL fluid vs control diet” value came out at 11%. In data set [1], the “increase of total BAL cell counts vs control diet” value was found to be 94%, the “increase of accumulation of eosinophils in BAL vs control diet” value was 270% and the “effect on leukocyte infiltration into the airway lumen” value is “increased”. Further, in data set [3], the “VA consumed retained as cis-9, trans-11 CLA in its triglyceride form” value is listed as around 12%. Besides, in data set [4], the “average conversion rate of VA to cis-9, trans-11 CLA” value was around 19%. Moreover, the “effect on lung pathology” value with OVA-induced asthma was “no significant effect”.
